Assay results reported in patent publication US10906890B2, “Triazole phenyl compounds as agonists of the APJ receptor” (AMGEN INC., priority 2016, dated 2021).

What follows are compounds tested against human APJ receptor (Homo sapiens (Human), UniProt P35414) (assay: [35S]GTPγS binding assay on membranes from CHO cells stably expressing human APJ receptor). Conditions: means of several independent experiments, read-out: Activity hAPJ SPA EC50 IP.
Assay type: biochemical
Outline: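 Membranes from CHO cells stably expressing FLAG-tagged human APJ incubated with [35S]GTPγS in buffer with optimized GDP, MgCl2 and NaCl levels, 90 min at RT. Signal read by imaging; EC50 by non-linear regression from means of several independent experiments.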

Chain of human APJ receptor (P35414 whole entry): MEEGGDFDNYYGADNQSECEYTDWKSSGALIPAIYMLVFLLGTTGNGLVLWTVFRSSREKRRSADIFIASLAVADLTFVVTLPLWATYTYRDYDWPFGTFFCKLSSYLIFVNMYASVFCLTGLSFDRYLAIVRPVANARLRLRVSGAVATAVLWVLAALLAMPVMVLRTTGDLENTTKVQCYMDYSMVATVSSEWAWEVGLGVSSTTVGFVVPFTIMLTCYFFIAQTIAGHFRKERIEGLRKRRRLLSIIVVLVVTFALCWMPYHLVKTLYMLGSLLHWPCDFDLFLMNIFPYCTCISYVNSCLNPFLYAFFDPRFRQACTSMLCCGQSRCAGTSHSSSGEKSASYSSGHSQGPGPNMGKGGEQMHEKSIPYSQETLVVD

Compared with `COc1cccc(-c2nnc(NS(=O)(=O)[C@@H](C)[C@H](OC)c3ncc(C)cn3)n2-c2c(OC)cccc2OC)c1` [Example 76.0, (1R,2S)-N-(4-(2,6-dimethoxyphenyl)-5-(3-methoxyphenyl)-4H-1,2,4-triazol-3-yl)-1-methoxy-1-(5-methyl-2-pyrimidinyl)-2-propanesulfonamide], `COc1cccc(OC)c1-n1c(NS(=O)(=O)[C@@H](C)[C@H](OC)c2ncc(C)cn2)nnc1-c1cccc(F)c1` [Example 85.0, (1R,2S)—N-(4-(2,6-Dimethoxyphenyl)-5-(3-fluorophenyl)-4H-1,2,4-triazol-3-yl)-1-methoxy-1-(5-methyl-2-pyrimidinyl)-2-propanesulfonamide] is 1.8-fold higher in EC50: 0.51 nM for the first, 0.92 nM for the second. The first is the more potent here.

Going from `CO[C@H](c1ncc(Cl)cn1)[C@H](C)S(=O)(=O)Nc1nnc(-c2ccccc2)n1C1(C)CC1` [Example 98.0] to `COCC1(n2c(NS(=O)(=O)[C@@H](C)[C@H](OC)c3ncc(Cl)cn3)nnc2-c2ccccc2)CC1` [Example 97.0, (1R,2S)-1-(5-Chloro-2-pyrimidinyl)-1-methoxy-N-(4-(1-(methoxymethyl)cyclopropyl)-5-phenyl-4H-1,2,4-triazol-3-yl)-2-propanesulfonamide], the EC50 falls from 3.3 nM to 1 nM (3.3-fold). The second is the more potent here.

First: COCC(COC)n1c(NS(=O)(=O)[C@@H](C)[C@H](OC)c2ncc(Cl)cn2)nnc1-c1ccccc1 [Example 96.0, (1R,2S)-1-(5-Chloro-2-pyrimidinyl)-N-(4-(1,3-dimethoxy-2-propanyl)-5-phenyl-4H-1,2,4-triazol-3-yl)-1-methoxy-2-propanesulfonamide]
Second: COc1cccc(OC)c1-n1c(NS(=O)(=O)[C@@H](C)[C@H](C)c2ncc(Cl)cn2)nnc1-c1ccccc1 [Example 16.0, (2S,3R)-3-(5-chloro-2-pyrimidinyl)-N-(4-(2,6-dimethoxyphenyl)-5-phenyl-4H-1,2,4-triazol-3-yl)-2-butanesulfonamide]
The EC50 of the first is 80-fold higher: 16 nM for the first, 0.2 nM for the second. The second is the more potent here.

Compared with `COc1ncnc(OC)c1-n1c(NS(=O)(=O)[C@@H](C)[C@H](C)c2ccc(Cl)cn2)nnc1-c1ccccc1` [Example 127.0], `COc1ccnc(OC)c1-n1c(NS(=O)(=O)[C@@H](C)[C@H](C)c2cnc(C)cn2)nnc1-c1ccccc1` (single isomer, unassigned) [Example 55.0, (2S,3R,P)-N-(4-(2,4-dimethoxy-3-pyridinyl)-5-phenyl-4H-1,2,4-triazol-3-yl)-3-(5-methyl-2-pyrazinyl)-2-butanesulfonamide or (2S,3R,M)-N-(4-(2,4-dimethoxy-3-pyridinyl)-5-phenyl-4H-1,2,4-triazol-3-yl)-3-(5-methyl-2-pyrazinyl)-2-butanesulfonamide] is 2.9-fold lower in EC50: 0.96 nM for the first, 0.33 nM for the second. The second is the more potent here.

`COc1ncnc(OC)c1-n1c(NS(=O)(=O)[C@@H](C)[C@H](C)c2ncc(C)cn2)nnc1-c1cccc(C#N)c1` [Example 50.0, (2S,3R)-N-(5-(3-cyanophenyl)-4-(4,6-dimethoxy-5-pyrimidinyl)-4H-1,2,4-triazol-3-yl)-3-(5-methyl-2-pyrimidinyl)-2-butanesulfonamide] and `COc1ncnc(OC)c1-n1c(NS(=O)(=O)[C@@H](C)[C@H](OC)c2ncc(C)cn2)nnc1-c1cccc(C#N)c1` [Example 2.0, (1R,2S)-N-(5-(3-cyanophenyl)-4-(4,6-dimethoxypyrimidin-5-yl)-4H-1,2,4-triazol-3-yl)-1-methoxy-1-(5-methylpyrimidin-2-yl)propane-2-sulfonamide] are the same in EC50: 110 nM for the first, 110 nM for the second.

Compared with `COc1cccc(OC)c1-n1c(NS(=O)(=O)[C@@H](C)[C@H](OC)c2ncc(C)cn2)nnc1-c1ccc(F)c(F)c1` [Example 72.0, (1R,2S)-N-(5-(3,4-difluorophenyl)-4-(2,6-dimethoxyphenyl)-4H-1,2,4-triazol-3-yl)-1-methoxy-1-(5-methyl-2-pyrimidinyl)-2-propanesulfonamide], `COc1cccc(OC)c1-n1c(NS(=O)(=O)[C@@H](C)[C@H](OC)c2ncc(C)cn2)nnc1-c1ccc2c(c1)OCO2` [Example 66.0, (1R,2S)-N-(5-(1,3-benzodioxol-5-yl)-4-(2,6-dimethoxyphenyl)-4H-1,2,4-triazol-3-yl)-1-methoxy-1-(5-methyl-2-pyrimidinyl)-2-propanesulfonamide] is 6.2-fold lower in EC50: 4.5 nM for the first, 0.73 nM for the second.

Going from `COc1cccc(OC)c1-n1c(NS(=O)(=O)[C@@H](C)[C@H](OC)c2ncc(C)cn2)nnc1-c1ccc(Oc2ccccc2)cc1` [Example 82.0, (1R,2S)-N-(4-(2,6-dimethoxyphenyl)-5-(4-phenoxyphenyl)-4H-1,2,4-triazol-3-yl)-1-methoxy-1-(5-methyl-2-pyrimidinyl)-2-propanesulfonamide] to `COc1cccc(OC)c1-n1c(NS(=O)(=O)[C@@H](C)[C@H](OC)c2ncc(C)cn2)nnc1-c1ccc(OC(F)(F)F)cc1` [Example 69.0, (1R,2S)-N-(4-(2,6-dimethoxyphenyl)-5-(4-(trifluoromethoxy)phenyl)-4H-1,2,4-triazol-3-yl)-1-methoxy-1-(5-methyl-2-pyrimidinyl)-2-propanesulfonamide], the EC50 falls from greater than 4200 nM to 35 nM.

First: C[C@H](c1ncc(Cl)cn1)[C@H](C)S(=O)(=O)Nc1nnc(-c2ccccc2)n1-c1c(F)cccc1F [Example 46.0, (2S,3R)-3-(5-chloro-2-pyrimidinyl)-N-(4-(2,6-difluorophenyl)-5-phenyl-4H-1,2,4-triazol-3-yl)-2-butanesulfonamide]
Second: COc1cccc(OC)c1-n1c(NS(=O)(=O)[C@@H](C)[C@H](C)c2ncc(C)cn2)nnc1-c1ccccc1 [Example 15.0, (2S,3R)-N-(4-(2,6-dimethoxyphenyl)-5-phenyl-4H-1,2,4-triazol-3-yl)-3-(5-methyl-2-pyrimidinyl)-2-butanesulfonamide]
The EC50 of the first is 1.9-fold higher: 1.7 nM for the first, 0.89 nM for the second.

Compared with `COc1cccc(OC)c1-n1c(NS(=O)(=O)[C@H]2C[C@@H](O)CN(c3ncc(F)cn3)C2)nnc1-c1ccccc1` (single isomer, unassigned) [Example 56.0, (3R,5S)-N-(4-(2,6-dimethoxyphenyl)-5-phenyl-4H-1,2,4-triazol-3-yl)-1-(5-fluoro-2-pyrimidinyl)-5-hydroxy-3-piperidinesulfonamide or (3S,5R)-N-(4-(2,6-dimethoxyphenyl)-5-phenyl-4H-1,2,4-triazol-3-yl)-1-(5-fluoro-2-pyrimidinyl)-5-hydroxy-3-piperidinesulfonamide], `COc1cccc(OC)c1-n1c(NS(=O)(=O)[C@H]2CCCN(c3ncc(F)cn3)C2)nnc1-c1ccccc1` (single isomer, unassigned) [Example 22.0, (3S)—N-(4-(2,6-dimethoxyphenyl)-5-phenyl-4H-1,2,4-triazol-3-yl)-1-(5-fluoro-2-pyrimidinyl)-3-piperidinesulfonamide or (3R)—N-(4-(2,6-dimethoxyphenyl)-5-phenyl-4H-1,2,4-triazol-3-yl)-1-(5-fluoro-2-pyrimidinyl)-3-piperidinesulfonamide] is 5.7-fold higher in EC50: 30 nM for the first, 170 nM for the second. The first is the more potent here.

First: COc1cccc(OC)c1-n1c(NS(=O)(=O)[C@@H](C)[C@H](OC)c2ncc(C)cn2)nnc1-c1cccc2cnccc12 [Example 95.0]
Second: COc1cccc(OC)c1-n1c(NS(=O)(=O)[C@@H](C)[C@H](OC)c2ncc(C)cn2)nnc1-c1cccc(OC(F)(F)F)c1 [Example 89.0, (1R,2S)—N-(4-(2,6-Dimethoxyphenyl)-5-(3-(trifluoromethoxy)phenyl)-4H-1,2,4-triazol-3-yl)-1-methoxy-1-(5-methyl-2-pyrimidinyl)-2-propanesulfonamide]
The EC50 of the first is 720-fold higher: 340 nM for the first, 0.47 nM for the second. The second is the more potent here.

Going from `COc1cccc(OC)c1-n1c(NS(=O)(=O)[C@H]2C[C@@H](O)CN(c3ncc(F)cn3)C2)nnc1-c1ccccc1` (mixture of isomers) [Example 53.0, (3R,5S)-N-(4-(2,6-dimethoxyphenyl)-5-phenyl-4H-1,2,4-triazol-3-yl)-1-(5-fluoro-2-pyrimidinyl)-5-hydroxy-3-piperidinesulfonamide and (3S,5R)-N-(4-(2,6-dimethoxyphenyl)-5-phenyl-4H-1,2,4-triazol-3-yl)-1-(5-fluoro-2-pyrimidinyl)-5-hydroxy-3-piperidinesulfonamide] to `COc1cccc(OC)c1-n1c(NS(=O)(=O)c2cncc(Br)c2)nnc1-c1ccccc1` [Example 60.0, 5-bromo-N-(4-(2,6-dimethoxyphenyl)-5-phenyl-4H-1,2,4-triazol-3-yl)-3-pyridinesulfonamide], the EC50 rises from 4.9 nM to 350 nM (71-fold).

Going from `COc1ncnc(OC)c1-n1c(NS(=O)(=O)[C@H]2CCCN(c3ncc(C)cn3)C2)nnc1-c1ccccc1` (single isomer, unassigned) [Example 30.0, (S)—N-(4-(4,6-Dimethoxypyrimidin-5-yl)-5-phenyl-4H-1,2,4-triazol-3-yl)-1-(5-methylpyrimidin-2-yl)piperidine-3-sulfonamide or (R)—N-(4-(4,6-dimethoxypyrimidin-5-yl)-5-phenyl-4H-1,2,4-triazol-3-yl)-1-(5-methylpyrimidin-2-yl)piperidine-3-sulfonamide] to `COc1cccc(OC)c1-n1c(NS(=O)(=O)[C@@H](C)[C@H](OC)c2ncc(C)cn2)nnc1-c1cccc(S(=O)(=O)N(C)C)c1` [Example 73.0, 3-(4-(2,6-dimethoxyphenyl)-5-((((1S,2R)-2-methoxy-1-methyl-2-(5-methyl-2-pyrimidinyl)ethyl)sulfonyl)amino)-4H-1,2,4-triazol-3-yl)-N,N-dimethylbenzenesulfonamide], the EC50 falls from 100 nM to 31 nM (3.2-fold). The second is the more potent here.

`COc1ccccc1-c1nnc(NS(=O)(=O)[C@@H](C)[C@H](OC)c2ncc(Cl)cn2)n1[C@@H]1CCCOC1` [Example 118.0] and `CO[C@H](c1ncc(Cl)cn1)[C@H](C)S(=O)(=O)Nc1nnc(-c2cccc(OC(F)F)c2)n1C1CC1` [Example 122.0, (1R,2S)-1-(5-Chloropyrimidin-2-yl)-N-(4-cyclopropyl-5-(3-(difluoromethoxy)phenyl)-4H-1,2,4-triazol-3-yl)-1-methoxypropane-2-sulfonamide] are within 1.5-fold of each other in EC50: 180 nM for the first, 250 nM for the second.

For `COc1ccc(-c2nnc(NS(=O)(=O)[C@@H](C)[C@H](OC)c3ncc(C)cn3)n2-c2c(OC)cccc2OC)cc1C#N` [Example 75.0, (1R,2S)-N-(5-(3-cyano-4-methoxyphenyl)-4-(2,6-dimethoxyphenyl)-4H-1,2,4-triazol-3-yl)-1-methoxy-1-(5-methyl-2-pyrimidinyl)-2-propanesulfonamide], the EC50 was 13 nM.
